Data taken from ChEMBL document CHEMBL1143891, “Synthesis of beta- and gamma-oxa isosteres of fosmidomycin and FR900098 as antimalarial candidates” (Bioorg Med Chem, 2008).

Tests used:
[1] = Inhibition of Escherichia coli DXR
[2] = system: Plasmodium falciparum; assay: Antimalarial activity against Plasmodium falciparum 3D7 in infected human erythrocytes after 48 hrs; assay type: functional, organism-based; details: 3D7, 48 h

Compound	IC50 [1]	IC50 [2]
CC(=O)N(O)COCP(=O)(O)O	87 nM	360 nM
CN(O)C(=O)COCP(=O)(OCOC(=O)C(C)(C)C)OCOC(=O)C(C)(C)C [BIS(PIVALOYLOXYMETHYL)ESTER]	> 30000 nM	51 nM
O=CN(O)COCP(=O)(O)O	1110 nM	4900 nM
O=C(NO)OCCP(=O)(O)O	> 3000 nM	–
O=CN(O)CCCP(=O)(O)O [FOSMIDOMYCIN]	54 nM	1200 nM
CC(=O)N(O)CCCP(=O)(O)O [FR-900098]	62 nM	430 nM
CC(=O)N(O)CCCP(=O)(OCOC(=O)C(C)(C)C)OCOC(=O)C(C)(C)C	> 30000 nM	99 nM
CN(O)C(=O)OCCP(=O)(O)O	3000 nM	–
O=C(COCP(=O)(O)O)NO	> 3000 nM	–
CN(O)C(=O)COCP(=O)(O)O	72 nM	240 nM
CN(O)C(=O)CCCP(=O)(O)O	97 nM	980 nM
